Our source for the Ki values is patent publication US9353084B2, “2-amino 3,5,5-trifluoro-3,4,5,6-tetrahydropyridines as BACE1 inhibitors for treatment of Alzheimer's disease” (H. Lundbeck A/S, priority 2014, dated 2016).

The assay deals with human BACE1 (Homo sapiens (Human), UniProt P56817). Description: BACE1 binding assay (SPA-based, radioligand displacement). The settings on record: pH 4.5, Ki calculated from IC50. The method, then:
The binding assay was performed as SPA-based assay using a biotinylated form of human BACE1 recombinantly expressed and subsequently purified from Freestyle HEK293 cells. The binding assay was run in a 50 mM sodium acetate buffer, pH 4.5 containing 50 mM NaCl and 0.03% Tween-20 in white clear bottom 384 plates (Corning #3653). 10 nM (final concentration) radioligand ([^3H]—N-((1S,2R)-1-benzyl-3-cyclopropylamino-2-hydroxy-propyl)-5-(methanesulfonyl-methyl-amino)-N—((R)-1-phenyl-ethyl)-isophthalamide) (TRQ11569 purchased from GE Healthcare) was mixed with test compound at a given concentration, 6 nM (final concentration) human BACE1 and 25 μg Streptavidin coated PVT core SPA beads (RPNQ0007, GE Healthcare Life Sciences) in a total volume of 40 μl. Several concentrations of each test compound were tested in the assay for IC50 determination. The plates were incubated for one hour at room temperature and counted in a Wallac Trilux counter. Total and non-specific binding were determined using buffer and 1 μM (final concentration) of the high affinity BACE1 reference inhibitor (S)-6-[3-chloro-5-(5-prop-1-ynyl-pyridin-3-yl)-thiophen-2-yl]-2-imino-3,6-dimethyl-tetrahydro-pyrimidin-4-one, respectively. For each test compound, a IC50 value (the concentration mediating 50% inhibition of the specific binding of the radioligand) was determined from concentration-response curve and used to calculate the Ki from the equation Ki=IC50/(1+L/Kd), where L and Kd are the final concentration of the radioligand used in the assay and the dissociation constant of the radioligand, respectively. The Kd of the radioligand was determined from saturation binding experiments.

The term Ki denotes the equilibrium dissociation constant of an inhibitor or competing ligand from its target.

human BACE1, sequence (P56817 46-501): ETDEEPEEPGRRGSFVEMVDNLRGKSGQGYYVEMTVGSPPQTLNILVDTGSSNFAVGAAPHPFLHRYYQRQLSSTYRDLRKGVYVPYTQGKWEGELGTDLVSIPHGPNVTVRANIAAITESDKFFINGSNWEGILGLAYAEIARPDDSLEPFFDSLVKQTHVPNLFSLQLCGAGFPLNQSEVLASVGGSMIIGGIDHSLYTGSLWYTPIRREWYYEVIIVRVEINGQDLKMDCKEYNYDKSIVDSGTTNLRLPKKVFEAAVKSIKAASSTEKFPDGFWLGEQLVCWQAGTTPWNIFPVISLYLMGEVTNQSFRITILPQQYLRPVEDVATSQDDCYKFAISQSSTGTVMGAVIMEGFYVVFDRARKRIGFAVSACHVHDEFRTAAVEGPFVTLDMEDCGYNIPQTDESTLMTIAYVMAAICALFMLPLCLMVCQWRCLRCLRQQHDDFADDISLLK

For the compound `C[C@@]1(F)CC(F)(F)[C@@](C)(c2cc(NC(=O)c3ccc(F)cn3)ccc2F)N=C1N` [Compound 2, N-(3-((2R,5R)-6-amino-3,3,5-trifluoro-2,5-dimethyl-2,3,4,5-tetrahydropyridin-2-yl)-4-fluorophenyl)-5-fluoropicolinamide], the inhibitory constant (Ki) is 210 nM.

Regarding `C[C@]1(F)CC(F)(F)[C@@](C)(c2cc(NC(=O)c3ccc(Cl)cn3)ccc2F)N=C1N` [Compound 3, N-(3-((2R,5S)-6-amino-3,3,5-trifluoro-2,5-dimethyl-2,3,4,5-tetrahydropyridin-2-yl)-4-fluorophenyl)-5-chloropicolinamide], the inhibitory constant (Ki) is 12 nM.

As to `C[C@]1(F)CC(F)(F)[C@@](C)(c2cc(NC(=O)c3ccc(C#N)cn3)ccc2F)N=C1N` [Compound 4, N-(3-((2R,5S)-6-amino-3,3,5-trifluoro-2,5-dimethyl-2,3,4,5-tetrahydropyridin-2-yl)-4-fluorophenyl)-5-cyanopicolinamide], the inhibition constant (Ki) is 11 nM.

As for `C[C@]1(F)CC(F)(F)[C@@](C)(c2cc(NC(=O)c3ccn(C(F)F)n3)ccc2F)N=C1N` [Compound 6, N-(3-((2R,5S)-6-amino-3,3,5-trifluoro-2,5-dimethyl-2,3,4,5-tetrahydropyridin-2-yl)-4-fluorophenyl)-1-(difluoromethyl)-1H-pyrazole-3-carboxamide], the Ki was 19 nM.

On to `Cc1nc(C(=O)Nc2ccc(F)c([C@@]3(C)N=C(N)[C@@](C)(F)CC3(F)F)c2)co1` [Compound 7, N-(3-((2R,5S)-6-amino-3,3,5-trifluoro-2,5-dimethyl-2,3,4,5-tetrahydropyridin-2-yl)-4-fluorophenyl)-2-methyloxazole-4-carboxamide], for which the Ki was 33 nM.

As to `C[C@]1(F)CC(F)(F)[C@@](C)(c2cc(NC(=O)c3nccs3)ccc2F)N=C1N` [Compound 8, N-(3-((2R,5S)-6-amino-3,3,5-trifluoro-2,5-dimethyl-2,3,4,5-tetrahydropyridin-2-yl)-4-fluorophenyl) thiazole-2-carboxamide], the inhibitory constant (Ki) was 66 nM.

As for `Cn1cc(Br)nc1C(=O)Nc1ccc(F)c([C@@]2(C)N=C(N)[C@@](C)(F)CC2(F)F)c1` [Compound 9, N-(3-((2R,5S)-6-amino-3,3,5-trifluoro-2,5-dimethyl-2,3,4,5-tetrahydropyridin-2-yl)-4-fluorophenyl)-4-bromo-1-methyl-1H-imidazole-2-carboxamide], the Ki is 100 nM.

With `Cc1csc(C(=O)Nc2ccc(F)c([C@@]3(C)N=C(N)[C@@](C)(F)CC3(F)F)c2)n1` [Compound 10, N-(3-((2R,5S)-6-amino-3,3,5-trifluoro-2,5-dimethyl-2,3,4,5-tetrahydropyridin-2-yl)-4-fluorophenyl)-4-methylthiazole-2-carboxamide], the inhibition constant Ki was 44 nM.

For the compound `C[C@]1(F)CC(F)(F)[C@@](C)(c2cc(NC(=O)c3ccc(C(F)(F)F)cn3)ccc2F)N=C1N` [Compound 11, N-(3-((2R,5S)-6-amino-3,3,5-trifluoro-2,5-dimethyl-2,3,4,5-tetrahydropyridin-2-yl)-4-fluorophenyl)-5-(trifluoromethyl)picolinamide], the Ki was 63 nM.

Take `COc1cnc(C(=O)Nc2ccc(F)c([C@@]3(C)N=C(N)[C@@](C)(F)CC3(F)F)c2)nc1` [Compound 12, N-(3-((2R,5S)-6-amino-3,3,5-trifluoro-2,5-dimethyl-2,3,4,5-tetrahydropyridin-2-yl)-4-fluorophenyl)-5-methoxypyrimidine-2-carboxamide]: the inhibition constant Ki is 29 nM.

As for `C[C@]1(F)CC(F)(F)[C@@](C)(c2cc(NC(=O)c3nc(CF)co3)ccc2F)N=C1N` [Compound 14, N-(3-((2R,5S)-6-amino-3,3,5-trifluoro-2,5-dimethyl-2,3,4,5-tetrahydropyridin-2-yl)-4-fluorophenyl)-4-(fluoromethyl)oxazole-2-carboxamide], the inhibition constant (Ki) is 37 nM.

Consider `C[C@]1(F)CC(F)(F)[C@@](C)(c2cc(NC(=O)c3nc(CF)cs3)ccc2F)N=C1N` [Compound 15, N-(3-((2R,5S)-6-amino-3,3,5-trifluoro-2,5-dimethyl-2,3,4,5-tetrahydropyridin-2-yl)-4-fluorophenyl)-4-(fluoromethyl)thiazole-2-carboxamide], for which the inhibition constant Ki is 46 nM.

`C[C@]1(F)CC(F)(F)[C@@](C)(c2cc(NC(=O)c3cnc(C(F)F)cn3)ccc2F)N=C1N` [Compound 16, N-(3-((2R,5S)-6-amino-3,3,5-trifluoro-2,5-dimethyl-2,3,4,5-tetrahydropyridin-2-yl)-4-fluorophenyl)-5-(difluoromethyl)pyrazine-2-carboxamide]: the Ki is 58 nM.

Consider `COc1cnc(C(=O)Nc2ccc(F)c([C@@]3(C)N=C(N)[C@@](C)(F)CC3(F)F)c2)c(C)n1` [Compound 19, N-(3-((2R,5S)-6-amino-3,3,5-trifluoro-2,5-dimethyl-2,3,4,5-tetrahydropyridin-2-yl)-4-fluorophenyl)-5-methoxy-3-methylpyrazine-2-carboxamide], for which the inhibition constant Ki was 32 nM.

Turning to `Cc1nnc(C(=O)Nc2ccc(F)c([C@@]3(C)N=C(N)[C@@](C)(F)CC3(F)F)c2)o1` [Compound 20, N-(3-((2R,5S)-6-amino-3,3,5-trifluoro-2,5-dimethyl-2,3,4,5-tetrahydropyridin-2-yl)-4-fluorophenyl)-5-methyl-1,3,4-oxadiazole-2-carboxamide], the inhibition constant (Ki) was 1600 nM.

`Cc1noc(C(=O)Nc2ccc(F)c([C@@]3(C)N=C(N)[C@@](C)(F)CC3(F)F)c2)n1` [Compound 21, N-(3-((2R,5S)-6-amino-3,3,5-trifluoro-2,5-dimethyl-2,3,4,5-tetrahydropyridin-2-yl)-4-fluorophenyl)-3-methyl-1,2,4-oxadiazole-5-carboxamide]: the inhibition constant (Ki) is 58 nM.

On to `Cn1cnc(C(=O)Nc2ccc(F)c([C@@]3(C)N=C(N)[C@@](C)(F)CC3(F)F)c2)n1` [Compound 22, N-(3-((2R,5S)-6-amino-3,3,5-trifluoro-2,5-dimethyl-2,3,4,5-tetrahydropyridin-2-yl)-4-fluorophenyl)-1-methyl-1H-1,2,4-triazole-3-carboxamide], for which the Ki was 110 nM.

Take `C[C@@]1(F)CC(F)(F)[C@@](C)(c2cc(NC(=O)c3ccn(C(F)F)n3)ccc2F)N=C1N` [Compound 23, N-(3-((2R,5R)-6-amino-3,3,5-trifluoro-2,5-dimethyl-2,3,4,5-tetrahydropyridin-2-yl)-4-fluorophenyl)-1-(difluoromethyl)-1H-pyrazole-3-carboxamide]: the Ki was 71 nM.

Consider `COc1cnc(C(=O)Nc2ccc(F)c([C@@]3(C)N=C(N)[C@](C)(F)CC3(F)F)c2)cn1` [Compound 25, N-(3-((2R,5R)-6-amino-3,3,5-trifluoro-2,5-dimethyl-2,3,4,5-tetrahydropyridin-2-yl)-4-fluorophenyl)-5-methoxypyrazine-2-carboxamide], for which the Ki was 130 nM.

Turning to `COc1cnc(C(=O)Nc2ccc(F)c([C@@]3(C)N=C(N)[C@](C)(F)CC3(F)F)c2)nc1` [Compound 26, N-(3-((2R,5R)-6-amino-3,3,5-trifluoro-2,5-dimethyl-2,3,4,5-tetrahydropyridin-2-yl)-4-fluorophenyl)-5-methoxypyrimidine-2-carboxamide], the inhibition constant (Ki) is 130 nM.

As to `Cc1csc(C(=O)Nc2ccc(F)c([C@@]3(C)N=C(N)[C@](C)(F)CC3(F)F)c2)n1` [Compound 27, N-(3-((2R,5R)-6-amino-3,3,5-trifluoro-2,5-dimethyl-2,3,4,5-tetrahydropyridin-2-yl)-4-fluorophenyl)-4-methylthiazole-2-carboxamide], the inhibitory constant (Ki) is 140 nM.

Take `C[C@@]1(F)CC(F)(F)[C@@](C)(c2cc(NC(=O)c3ccc(C(F)(F)F)cn3)ccc2F)N=C1N` [Compound 28, N-(3-((2R,5R)-6-amino-3,3,5-trifluoro-2,5-dimethyl-2,3,4,5-tetrahydropyridin-2-yl)-4-fluorophenyl)-5-(trifluoromethyl)picolinamide]: the inhibition constant (Ki) was 170 nM.

Take `C[C@@]1(F)CC(F)(F)[C@@](C)(c2cc(NC(=O)c3nc(CF)co3)ccc2F)N=C1N` [Compound 30, N-(3-((2R,5R)-6-amino-3,3,5-trifluoro-2,5-dimethyl-2,3,4,5-tetrahydropyridin-2-yl)-4-fluorophenyl)-4-(fluoromethyl)oxazole-2-carboxamide]: the Ki is 260 nM.

Consider `C[C@@]1(F)CC(F)(F)[C@@](C)(c2cc(NC(=O)c3nc(CF)cs3)ccc2F)N=C1N` [Compound 31, N-(3-((2R,5R)-6-amino-3,3,5-trifluoro-2,5-dimethyl-2,3,4,5-tetrahydropyridin-2-yl)-4-fluorophenyl)-4-(fluoromethyl)thiazole-2-carboxamide], for which the Ki was 92 nM.

In the case of `C[C@@]1(F)CC(F)(F)[C@@](C)(c2cc(NC(=O)c3ccc(C#N)cn3)ccc2F)N=C1N` [Compound 32, N-(3-((2R,5R)-6-amino-3,3,5-trifluoro-2,5-dimethyl-2,3,4,5-tetrahydropyridin-2-yl)-4-fluorophenyl)-5-cyanopicolinamide], the Ki is 51 nM.

In the case of `C[C@@]1(F)CC(F)(F)[C@@](C)(c2cc(NC(=O)c3ccc(Cl)cn3)ccc2F)N=C1N` [Compound 33, N-(3-((2R,5R)-6-amino-3,3,5-trifluoro-2,5-dimethyl-2,3,4,5-tetrahydropyridin-2-yl)-4-fluorophenyl)-5-chloropicolinamide], the Ki is 62 nM.
